# Test results taken from PubChem BioAssay (NCI).
#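 Briefly, cells in 96-well plates were exposed to five compound concentrations for 48 h, and endpoints were estimated by linear interpolation. GI50 marks 50% less growth. TGI: concentration producing complete growth inhibition.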 *1 amine or outer side, *2 acyl side, *3 side chain or, on linkers, in order; H or OH if unused. Where a SMILES comes first, the peptide text is derived from it. [ ]: non-standard residue; d: D form. The star is where a group is joined. X12 = NCCCCC(N[*:1])C(=O)CN1CCCC1C(=O)[*:2]; Pentadecanoyl = CCCCCCCCCCCCCCC(=O)*
# Experiments:
# Test in all cases: NCI tumour cell line growth inhibition, 48 h
# MALME-3M melanoma = tested on: MALME-3M melanoma
# A549 NSCLC = tested on: A549 NSCLC
# M14 melanoma = tested on: M14 melanoma
# ACHN renal = tested on: ACHN renal
# SF-295 CNS = tested on: SF-295 CNS
# SN12C renal = tested on: SN12C renal
# MDA-MB-231 breast = tested on: MDA-MB-231 breast
# PC-3 prostate = tested on: PC-3 prostate
# SNB-19 CNS = tested on: SNB-19 CNS
# T-47D breast = tested on: T-47D breast
# HCC-2998 colon = tested on: HCC-2998 colon
SMILES,TGI (MALME-3M melanoma) [µM],TGI (A549 NSCLC) [µM],TGI (M14 melanoma) [µM],TGI (ACHN renal) [µM],TGI (SF-295 CNS) [µM],TGI (SN12C renal) [µM],TGI (MDA-MB-231 breast) [µM],TGI (PC-3 prostate) [µM],TGI (SNB-19 CNS) [µM],TGI (T-47D breast) [µM],TGI (HCC-2998 colon) [µM],GI50 (MALME-3M melanoma) [µM],GI50 (A549 NSCLC) [µM],GI50 (M14 melanoma) [µM],GI50 (SF-295 CNS) [µM],GI50 (MDA-MB-231 breast) [µM],GI50 (HCC-2998 colon) [µM],GI50 (SNB-19 CNS) [µM],GI50 (T-47D breast) [µM]
CCOC(=O)c1sc2[n+](c1C)C(=O)/C(=C/c1ccccc1Cl)S2,31.5,> 56.8,> 43.1,40,4.75,> 100,> 27.8,> 85.6,> 42.7,55.1,–,–,–,–,–,–,–,–,–
NS(=O)(=O)c1ccc(NS(=O)(=O)c2ccc(NC(=O)N(c3ccccc3)c3ccccc3)cc2)cc1,> 100,> 100,> 100,> 100,> 100,> 100,> 100,> 100,> 100,> 100,–,–,–,–,–,–,–,–,–
CCOC(=O)C1=C(C)N(c2ccc(Cl)cc2)C2(O)C=CC(=O)C3C(=O)N(c4ccccc4)C(=O)C132 (stereo unspecified),3.57,10.5,3.29,3.07,5.25,5.28,4.59,3.49,8.1,6.55,–,–,–,–,–,–,–,–,–
c1ccc(C2C3=C(CCCC3)Nc3nnnn32)cc1 (stereo unspecified),–,> 100,> 100,> 100,> 100,> 100,> 100,> 100,> 100,> 100,–,–,–,–,–,–,–,–,–
Cc1cccc(-c2cc(=O)c3cc(C)cnc3[nH]2)c1,> 100,> 100,> 100,> 100,0.609,> 94.6,–,> 56.9,–,> 100,6.82,–,–,–,–,–,–,–,–
COC1OC2COC(c3ccccc3)OC2C(OC(=S)c2ccccc2)C1O (stereo unspecified),> 100,33.7,> 100,> 100,> 100,> 100,78.1,74.9,> 100,59.5,–,–,–,–,–,–,–,–,–
CCN(CC)CCC1(C(=O)OC)SCCc2ccc(C)cc21 (stereo unspecified),> 100,> 100,> 100,> 100,> 100,> 100,–,> 100,> 100,> 100,> 100,–,–,–,–,–,–,–,–
COc1nc2ncc([C@@H](O)[C@H](O)CO)nc2c(=O)[nH]1,> 100,> 100,> 100,> 100,> 100,> 100,> 100,> 100,> 100,> 100,–,–,–,–,–,–,–,–,–
O=C1/C(=C/Cc2ccco2)N=C(c2ccccc2)N1c1nc2c(Cl)cc(Cl)cc2s1,–,80.7,> 100,74.6,> 100,> 100,82.2,74.8,> 100,73.5,> 100,–,–,–,–,–,–,–,–
Cc1cc(N)c2cc(NC(=O)CCCCCCCCC(=O)Nc3ccc4nc(C)cc(N)c4c3)ccc2n1,68.8,> 31.6,> 100,> 100,> 88.7,26.6,–,–,> 100,–,> 82.9,–,–,–,–,–,–,–,–
N#Cc1nc(C(=O)c2ccccc2)oc1N,–,> 100,> 100,> 100,–,> 100,> 100,> 100,> 100,–,–,–,–,–,–,–,–,–,–
CC1CC/C(=C\c2ccc(F)cc2)C2=C1C(c1ccc(F)cc1)NC(=S)N2 (stereo unspecified),87.3,–,> 100,> 100,> 100,> 100,> 100,> 100,> 100,70.8,–,–,–,–,–,–,–,–,–
CCCCCCCCCCCCCCC(=O)NC(CCCCN)C(=O)CN1CCCC1C(=O)NCC(=O)NC(Cc1ccccc1)C(=O)N1CCCC1C(=O)NC(CO)C(=O)NC(Cc1ccc(O)cc1)C(=O)NC(CCCCN)C(=O)NC(CC(C)C)C(=O)NC(CCCN=C(N)N)C(=O)N1CCCC1C(=O)NCC(N)=O (stereo unspecified) (Pentadecanoyl-[X12]GFPSYKLRPG-NH2; configuration not given here),32.2,47.6,39.8,–,57.3,–,32.5,–,50.4,40.7,35.2,8.11,23.7,19.2,26.2,16.7,17.7,24.4,17.2
N#CC(NNC(=O)c1c(Cl)c(Cl)c(Cl)c(Cl)c1-c1nc2ccc(C(=O)c3ccccc3)cc2[nH]1)c1cccc(Oc2ccccc2)c1 (stereo unspecified),–,> 100,83.9,88.8,96.6,67.2,45.2,54,90,76.2,–,–,–,–,–,–,–,–,–
CCOC(=O)CCC1(C(=O)O[C@@H]2C[C@H](C)CC[C@H]2C(C)C)CCCCC1=O (stereo partly specified),> 100,> 100,> 100,> 100,> 100,> 100,> 100,> 100,> 100,> 100,–,–,–,–,–,–,–,–,–
O=C1CSC2=NC3=C(COC/C3=C\c3ccc(F)cc3)C(c3ccc(F)cc3)N12 (stereo unspecified),–,–,> 100,> 100,> 100,> 100,> 100,> 100,> 100,> 100,> 100,–,–,–,–,–,–,–,–
COc1ccc(Cn2nc(OCc3ccccc3)c3cc([N+](=O)[O-])ccc32)cc1,> 100,> 100,> 100,> 100,> 100,> 100,> 100,–,> 100,> 100,> 100,–,–,–,–,–,–,–,–
C[S+](C)C1(c2ccccc2)C(=O)c2ccccc2C1=O,> 100,97.7,> 100,> 100,99.2,> 100,–,> 100,> 100,92.1,42.8,–,–,–,–,–,–,–,–
Cc1cc(C)c(N)c(CO)c1,> 100,> 100,> 100,> 100,> 100,> 100,> 100,> 100,> 100,–,> 100,–,–,–,–,–,–,–,–
COC1OC(=O)C(OC)C(OC)C1OC (stereo unspecified),–,> 100,> 100,> 100,> 100,> 100,> 100,> 100,> 100,> 100,> 100,–,–,–,–,–,–,–,–
